EC50 data for 14 compounds are collected here from patent publication US12264173B2 (GILEAD SCIENCES, INC., priority 2020, dated 2025).

Holding throughout (format): cell-based
One experiment has as its system HRV16. The experiment in a line: HRV16 HeLa EC50 (cytopathic effect in H1-HeLa cells). The following applies: read-out: HRV16 HeLa EC50. The method, boiled down:
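Read-out is luminescent cell viability (CellTiter-Glo) after 96 h of infection at 33 °C, scaled between uninfected and infected-untreated wells. Before infection with titrated virus, compounds went onto H1-HeLa cells as triplicate 3-fold dilution series.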

The subject of the next experiment is DENV2 replicon. Briefly: DENV-2 Huh-7 Rep EC50 (replicon luminescence). A digest of the protocol: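 EC50 derived from luminescence dose-response, normalised to DMSO-only 0% inhibition wells, after 1.5 h with EnduRen substrate. Compounds were first exposed for 48 h at 37° C to DENV2 replicon Huh-7 cells (5,000/well).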
The next experiment deals with RSV A2. The experiment in a line: RSV NHBE EC50 (RSV A2 antiviral assay in NHBE cells). Particulars: read-out: RSV NHBE EC50. The method, boiled down:
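Read-out: CellTiter-Glo luminescence of cell viability after 4 days at 37° C. Primary NHBE cells, 7,500/well, 3-fold compound dilutions, 0.05% DMSO, infected with RSV A2 (1×10^4.5 TCID/mL).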

For another experiment, the system named is RSV strain A2. The experiment in a line: microbe, parasite or virus in culture. The following applies: read-out: RSV HEp-2 EC50. The method, boiled down: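 Cytopathic-effect protection assay: HEp-2 cells (50,000/mL) infected with pre-titered RSV A2 onto 3-fold serial compound dilutions, incubated 4 days at 37° C. Cell viability read by CellTiter-Glo luminescence; percent inhibition derived against 0% and 100% virus-inhibition controls.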

Where [1] appears, read: 96 h, Table 3, H1-HeLa cells, 96 h.
Where [2] appears, read: Dengue virus, DENV2, Huh-7, 48 h, read-out: DENV-2 REP Huh7 EC50.
The mark [3] stands for this setting: human respiratory syncytial virus, NHBE, 96 h, Table 3, NHBE cells, RSV A2, 4 days.
Where [4] appears, read: human respiratory syncytial virus, HEp-2, 96 h, Table 3, HEp-2 cells, RSV A2, 4 days.
The mark [5] stands for this setting: Dengue virus, DENV2, Huh-7, 48 h, read-out: DENV-2 REP Huh7 EC50, Table 3, Huh-7 DENV2 replicon cells, 48 hours.
The mark [6] stands for this setting: Table 3, Huh-7 DENV2 replicon cells, 48 hours, read-out: DENV-2 REP Huh7 EC50.
[7] abbreviates: Table 3, NHBE cells, RSV A2, 4 days.
The mark [8] stands for this setting: Table 3, HEp-2 cells, RSV A2, 4 days.

Where two headings read alike, the source gives them in different places.

As for `CC(C)OC(=O)[C@H](C)N[P@](=O)(OC[C@@]1(C#N)O[C@@H](c2ccc3c(N)ncnn23)[C@H](OC(=O)C2CCOCC2)[C@@H]1OC(=O)C1CCOCC1)Oc1ccccc1` [Example 156, (2R,3S,4S,5S)-5-(4-aminopyrrolo[2,1-f][1,2,4]triazin-7-yl)-2-cyano-2-((((S)-(((S)-1-isopropoxy-1-oxopropan-2-yl)amino)(phenoxy)phosphoryl)oxy)methyl) tetrahydrofuran-3,4-diyl bis(tetrahydro-2H-pyran-4-carboxylate)], the EC50 in the experiment on HRV16 (setting [1]) is 21700 nM; with DENV2 replicon (setting [2]), greater than 50000 nM; in the experiment with RSV A2 (setting [3]), greater than 5000 nM; with RSV strain A2 (setting [4]) it was 456 nM.
The like results for `COC(=O)[C@H](C)NP(=O)(OC[C@@]1(C#N)O[C@@H](c2ccc3c(NC(C)=O)ncnn23)[C@H](OC(C)=O)[C@@H]1OC(C)=O)Oc1ccccc1` (stereo partly drawn) [Example 132, (2R,3S,4S,5S)-5-(4-acetamidopyrrolo[2,1-f][1,2,4]triazin-7-yl)-2-cyano-2-((((((S)-1-methoxy-1-oxopropan-2-yl)amino)(phenoxy)phosphoryl)oxy)methyl) tetrahydrofuran-3,4-diyl diacetate] were, in that order, 3480 nM, 29400 nM, 145 nM and 434 nM.
As to `CCOC(=O)[C@H](C)NP(=O)(N[C@@H](C)C(=O)OCC)OC[C@@]1(C#N)O[C@@H](c2ccc3c(N)ncnn23)[C@H](OC(C)=O)[C@@H]1OC(C)=O` [Example 134, ((2R,3S,4R,5S)-5-(4-aminopyrrolo[2,1-f][1,2,4]triazin-7-yl)-2-cyano-3,4-diacetatetetrahydrofuran-2-yl)methyl bis-ethyl L-alaninate phosphate], the EC50 was greater than 50000 nM with HRV16 (setting [1]), greater than 50000 nM with DENV2 replicon (setting [5]), 1590 nM with RSV A2 (setting [3]) and 7340 nM in the experiment with RSV strain A2 (setting [4]).
Turning to `CCC(=O)O[C@H]1[C@H](c2ccc3c(N)ncnn23)O[C@](C#N)(COP(=O)(N[C@@H](C)C(=O)OC2COC2)Oc2ccccc2)[C@H]1OC(=O)CC` (single isomer, unassigned) [Example 176], the EC50 with HRV16 (Table 3, H1-HeLa cells, 96 h) worked out at 142 nM; in the experiment on DENV2 replicon (setting [6]), 9440 nM; in the experiment on RSV A2 (setting [7]), 16 nM; in the experiment with RSV strain A2 (setting [8]), 182 nM.
For `COCC(=O)O[C@H]1[C@H](c2ccc3c(N)ncnn23)O[C@](C#N)(CO[P@@](=O)(N[C@@H](C)C(=O)OC(C)C)Oc2ccccc2)[C@H]1OC(=O)COC` [Example 151, (2R,3S,4S,5S)-5-(4-aminopyrrolo[2,1-f][1,2,4]triazin-7-yl)-2-cyano-2-((((S)-(((S)-1-isopropoxy-1-oxopropan-2-yl)amino)(phenoxy)phosphoryl)oxy)methyl) tetrahydrofuran-3,4-diyl bis(2-methoxyacetate)], the EC50 with HRV16 (setting [1]) stood at 946 nM; in the experiment with DENV2 replicon (setting [2]), 19500 nM; in the experiment with RSV A2 (setting [3]), 751 nM; in the experiment with RSV strain A2 (setting [4]), 226 nM.
In the case of `CC(C)OC(=O)C(C)NP(=O)(OCC1(C#N)OC(c2ccc3c(N)ncnn23)C(OC(=O)C(C)C)C1OC(=O)C(C)C)Oc1ccc(C(=O)N(C)C)cc1` (single isomer, unassigned) [Example 178], the EC50 in the experiment with HRV16 (Table 3, H1-HeLa cells, 96 h) is 1070 nM; in the experiment on DENV2 replicon (setting [6]), 53200 nM; in the experiment on RSV A2 (setting [7]), 163 nM; in the experiment on RSV strain A2 (setting [8]) it was 633 nM.
For `CC(=O)O[C@H]1[C@H](c2ccc3c(N)ncnn23)O[C@](C#N)(COP(=O)(N[C@@H](C)C(=O)OC2CCCCC2)N[C@@H](C)C(=O)OC2CCCCC2)[C@H]1OC(C)=O` [Example 121, (2R,3S,4S,5S)-5-(4-Aminopyrrolo[2,1-f][1,2,4]triazin-7-yl)-2-cyano-2-((((((S)-1-(cyclohexyloxy)-1-oxopropan-2-yl)amino)(((S)-1-cyclohexyloxy-1-oxopropan-2-yl)amino)phosphoryl)oxy)methyl)tetrahydrofuran-3,4-diyl diacetate], the EC50 in the experiment with HRV16 (setting [1]) is 6660 nM; in the experiment with DENV2 replicon (setting [5]) it was 44400 nM; with RSV A2 (setting [3]), 498 nM; with RSV strain A2 (setting [4]), 5450 nM.
In the case of `CCC(=O)O[C@H]1[C@H](c2ccc3c(N)ncnn23)O[C@](C#N)(COP(=O)(N[C@@H](C)C(=O)OC2COC2)Oc2ccccc2)[C@H]1OC(=O)CC` (mixture of isomers) [Example 174, (2R,3S,4S,5S)-5-(4-aminopyrrolo[2,1-f][1,2,4]triazin-7-yl)-2-cyano-2-((((((S)-1-(oxetan-3-yloxy)-1-oxopropan-2-yl)amino)(phenoxy)phosphoryl)oxy)methyl) tetrahydrofuran-3,4-diyl dipropionate], the EC50 was determined as 97 nM in the experiment on HRV16 (setting [1]), 8310 nM in the experiment with DENV2 replicon (setting [2]), 20 nM in the experiment on RSV A2 (setting [3]) and 100 nM in the experiment on RSV strain A2 (setting [4]).
The like results for `CCOC(=O)[C@H](C)N[P@](=O)(OC[C@@]1(C#N)O[C@@H](c2ccc3c(N)ncnn23)[C@H](OC(C)=O)[C@@H]1OC(C)=O)Oc1ccccc1` [Example 104, (2R,3S,4S,5S)-5-(4-aminopyrrolo[2,1-f][1,2,4]triazin-7-yl)-2-cyano-2-((((S)-(((S)-1-ethoxy-1-oxopropan-2-yl)amino)(phenoxy)phosphoryl)oxy)methyl) tetrahydrofuran-3,4-diyl diacetate] were, in that order, 703 nM, 29100 nM, 32 nM and 147 nM.
Consider `CC(C)C(=O)O[C@H]1[C@H](c2ccc3c(N)ncnn23)O[C@](C#N)(COP(=O)(N[C@@H](C)C(=O)OC2CCC2)Oc2ccccc2)[C@H]1OC(=O)C(C)C` (stereo partly drawn) [Example 197, (2R,3S,4S,5S)-5-(4-aminopyrrolo[2,1-f][1,2,4]triazin-7-yl)-2-cyano-2-((((((S)-1-cyclobutoxy-1-oxopropan-2-yl)amino)(phenoxy)phosphoryl)oxy)methyl) tetrahydrofuran-3,4-diyl bis(2-methylpropanoate)], for which the EC50 was 94 nM in the experiment with HRV16 (Table 3, H1-HeLa cells, 96 h); 4460 nM in the experiment with DENV2 replicon (setting [6]); 33 nM in the experiment with RSV A2 (setting [7]); 28 nM in the experiment on RSV strain A2 (setting [8]).
Turning to `CCC(=O)O[C@H]1[C@H](c2ccc3c(N)ncnn23)O[C@](C#N)(COP(=O)(N[C@@H](C)C(=O)OC2CCC2)Oc2ccccc2)[C@H]1OC(=O)CC` (stereo partly drawn) [Example 195, (2R,3S,4S,5S)-5-(4-aminopyrrolo[2,1-f][1,2,4]triazin-7-yl)-2-cyano-2-((((((S)-1-cyclobutoxy-1-oxopropan-2-yl)amino)(phenoxy)phosphoryl)oxy)methyl) tetrahydrofuran-3,4-diyl dipropionate], the EC50 in the experiment on HRV16 (Table 3, H1-HeLa cells, 96 h) was 126 nM; in the experiment with DENV2 replicon (setting [6]), 6440 nM; in the experiment with RSV A2 (setting [7]) it was 59 nM; with RSV strain A2 (setting [8]), 23 nM.
The corresponding values for `CC(=O)O[C@H]1[C@H](c2ccc3c(N)ncnn23)O[C@](C#N)(CO[P@](=O)(N[C@@H](C)C(=O)OCC2CCOCC2)Oc2ccccc2)[C@H]1OC(C)=O` [Example 112] are 2900 nM, 36500 nM, 40 nM and 284 nM.
Turning to `CC(=O)OC1[C@H](c2ccc3c(N)ncnn23)O[C@](C#N)(COP(=O)(N[C@@H](C)C(=O)OCC2CCN(CC(F)(F)F)CC2)Oc2ccccc2)[C@H]1OC(C)=O` (stereo in doubt) [Example 118, (2R,3S,4R,5S)-5-(4-aminopyrrolo[2,1-f][1,2,4]triazin-7-yl)-2-cyano-2-((((((S)-1-oxo-1-((1-(2,2,2-trifluoroethyl)piperidin-4-yl)methoxy)propan-2-yl)amino)(phenoxy)phosphoryl)oxy)methyl)tetrahydrofuran-3,4-diyl diacetate], the EC50 in the experiment with HRV16 (setting [1]) was determined as 736 nM; in the experiment on DENV2 replicon (setting [2]) it was 54400 nM; in the experiment on RSV A2 (setting [3]), 26 nM; in the experiment on RSV strain A2 (setting [4]), 224 nM.
For `CCOC(=O)[C@H](C)NP(=O)(N[C@@H](C)C(=O)OCC)OC[C@@]1(C#N)O[C@@H](c2ccc3c(N)ncnn23)[C@H](OC(=O)C(C)C)[C@@H]1OC(=O)C(C)C` [Example 137, ((2R,3S,4R,5S)-5-(4-aminopyrrolo[2,1-f][1,2,4]triazin-7-yl)-2-cyano-3,4-diisobutylatetetrahydrofuran-2-yl)methyl bis-ethyl L-alaninate phosphate], the EC50 with HRV16 (setting [1]) was 1040 nM; in the experiment on HRV16 (HeLa, Table 5 comparative activity, 2',3'-OH vs -OC(O)iPr), 1040 nM; with DENV2 replicon (setting [5]) it was 38400 nM; in the experiment on RSV A2 (setting [3]), 65 nM; with RSV A2 (human respiratory syncytial virus, NHBE, Table 5 comparative activity, 2',3'-OH vs -OC(O)iPr), 65 nM; with RSV strain A2 (setting [4]) it was 467 nM. In the experiment with RSV strain A2 (human respiratory syncytial virus, HEp-2, Table 5 comparative activity, 2',3'-OH vs -OC(O)iPr), the EC50 worked out at 467 nM.
